The results in this text go back to US11458149B1, “TEAD inhibitors and uses thereof” (Ikena Oncology, Inc., priority 2019, dated 2022).

SMILES strings stand for the structures. Where two headings read alike, the source gives them in different places.

The subject of test [1] is TEAD. The test is described as follows: TEAD reporter assay (Hippo Pathway TEAD Reporter - MCF7 cell line, luciferase). The test is classed as cell-based, human. The source says: TEAD inhibition can be assayed using Hippo Pathway TEAD Reporter—MCF7 Cell Line (BPS Bioscience, Catalog #: 60618).
The TEAD Reporter—MCF7 cell line contains the firefly luciferase gene under the control of TEAD responsive elements stably integrated into the human breast cancer cell line, MCF7. Inside the cells, basal unphosphorylated YAP/TAZ remains in the nucleus and induces the constitutive expression of luciferase reporter. The cell line is validated for the inhibition of the expression of luciferase reporter by the activators of the Hippo pathway.
• 1) Harvest TEAD Reporter—MCF7 cells from culture in growth medium and seed cells at a density of 35,000 cells per well into white clear-bottom 96-well microplate in 45 μl of assay medium. • 2) Incubate cells at 37° C. in a CO2 incubator for overnight. • 3) Dilute the activators (H2O2 or okadaic acid) stock in assay medium. Add 5 μl of diluted activators to the wells. The final concentration of DMSO in assay medium is 0.1%. • 4) Add 5 μl of assay medium with same concentration of DMSO without activator to control wells. • 5) Add 50 μl of assay medium with DMSO to cell-free control wells (for determining background luminescence). • 6) Set up each treatment in at least triplicate. • 7) Incubate cells at 37° C. in a CO2 incubator for 5-6 hours. • 8) Perform luciferase assay using the ONE-Step™ Luciferase Assay System following the protocol provided: Add 100 μl of ONE-Step™ Luciferase reagent per well and rock at room temperature for ˜15 minutes. Measure luminescence using a luminometer. • 9) Data Analysis: Obtain the background-subtracted luminescence by subtracting the average background luminescence (cell-free control wells) from the luminescence reading of all wells.
(§1) Certain compounds were tested in TEAD reporter assay, and in H226 and H28. A: EC50<0.1 uM; B: 0.1 uM≤EC50≤0.5 uM; C: EC50>0.5 uM.
On the technique in general: Reporter assays use an easily measured gene product as a stand-in for the process of interest.

The test system of test [2] is H226. The test is described as follows: Anti-proliferation assay in H226 cells. The class given is cell-based, human. Here is the method: as §1
Individual cell lines were grown in medium according to supplier instructions and seeded into 96-well plates at a density that ensured logarithmic growth over 72 hours. TEAD inhibitor compounds were administered to cells at a top concentration of 10 μm and subsequently a 10 point 3-fold serial dilution was conducted. After 72 hours, proliferation was quantified using Cell TITERGLO™ (Promega, Inc.) and compared to vehicle control. IC50 and EC50 values were generated using XLFit curve fitting software.

The mark [3] stands for this setting: Homo sapiens, MCF7, TEAD Reporter - MCF7 cells, read-out: TEAD Reporter Assay EC50.
The mark [4] stands for this setting: Homo sapiens, NCI-H226, H226 cells, read-out: H226 EC50.
[5] abbreviates: TEAD Reporter - MCF7 cells, read-out: TEAD Reporter Assay EC50.
Where [6] appears, read: H226 cells, read-out: H226 EC50.

In the case of `C=CC(=O)Nc1cccc(N2CCCc3cc(C(F)(F)F)ccc32)c1` [Compound I-43], the 50% effective concentration (EC50) in test [1] (Homo sapiens, MCF7, read-out: TEAD Reporter Assay EC50 (uM)) is > 0.5 µM; in test [2] (Homo sapiens, NCI-H226, read-out: H226 EC50 (uM)) it was > 0.5 µM.
As for `NC(=O)/C=C/c1cc(Oc2cccc(C(F)(F)F)c2)cc2ncccc12` [Compound I-39, (E)-3-[7-[3-(trifluoromethyl)phenoxy]-5-quinolyl]prop-2-enamide], the concentration for a half-maximal effect (EC50) in test [1] (setting [3]) and in test [2] (setting [4]) was > 0.5 µM throughout.
For the compound `C=CC(=O)Nc1cccc(N2CCCc3ccc(C(F)(F)F)cc32)c1` [Compound I-38, N-[3-[7-(trifluoromethyl)-3,4-dihydro-2H-quinolin-1-yl]phenyl]prop-2-enamide], the EC50 in test [1] (setting [3]) and in test [2] (setting [4]) was > 0.5 µM in each case.
As to `C=CC(=O)Nc1ccc(C)c(Oc2cc(C(F)(F)F)ccc2OC)c1` [Compound I-32, N-[3-[2-Methoxy-5-(trifluoromethyl)phenoxy]-4-methyl-phenyl]prop-2-enamide], the EC50 in test [1] (setting [3]) and in test [2] (setting [4]) was > 0.5 µM in each case.
Consider `C=CC(=O)N[C@H]1CCN(Cc2ccc(C(F)(F)F)cc2)C1` [Compound I-57, N-[(3S)-1-[[4-(trifluoromethyl)phenyl]methyl]pyrrolidin-3-yl]prop-2-enamide], for which the EC50 in test [1] (setting [3]) and in test [2] (setting [4]) was > 0.5 µM in each case.
For the compound `C=CC(=O)N[C@H]1Cc2ccccc2N(Cc2cccc(C(F)(F)F)c2)C1` [Compound I-60, N-[(3S)-1-[[3-(trifluoromethyl)phenyl]methyl]-3,4-dihydro-2H-quinolin-3-yl]prop-2-enamide], the results for the 50% effective concentration (EC50) in test [1] (setting [3]) and in test [2] (setting [4]) were 0.1 to 0.5 µM and < 0.1 µM, respectively.
For `C=CC(=O)NC1CCN(Cc2ccc(SC(F)(F)F)cc2)CC1` [Compound I-387] the same measures were > 0.5 µM and > 0.5 µM.
For `C=CC(=O)NC1CCN(Cc2cccc(C(F)(F)F)c2)CC1` [Compound I-51, N-[1-[[3-(trifluoromethyl)phenyl]methyl]-4-piperidyl]prop-2-enamide] the same measures were > 0.5 µM and > 0.5 µM.
For `C=CC(=O)N1CCC(NCc2ccc(C(F)(F)F)cc2)CC1` [Compound I-53, 1-[4-[[4-(trifluoromethyl)phenyl]methylamino]-1-piperidyl]prop-2-en-1-one] the same measures were 0.1 to 0.5 µM and 0.1 to 0.5 µM.
Consider `C=CC(=O)Nc1ccc2c(c1)N(c1ccc(C(F)(F)F)cc1)CCC2` [Compound I-34, N-[1-[4-(Trifluoromethyl)phenyl]-3,4-dihydro-2H-quinolin-7-yl]prop-2-enamide], for which, in test [1] (setting [3]), the EC50 is > 0.5 µM.
For the compound `C=CC(=O)N1CC[C@H](NCc2cccc(C(F)(F)F)c2)C1` [Compound I-65, 1-[(3S)-3-[[3-(trifluoromethyl)phenyl]methylamino]pyrrolidin-1-yl]prop-2-en-1-one], the concentration giving a half-maximal response (EC50) in test [1] (setting [3]) is 0.1 to 0.5 µM; in test [2] (setting [4]) it was > 0.5 µM.
With `C=CC(=O)N[C@H]1CCCN(Cc2cccc(C(F)(F)F)c2)C1` [Compound I-48, N-[(3S)-1-[[3-(trifluoromethyl)phenyl]methyl]-3-piperidyl]prop-2-enamide], the EC50 in test [1] (setting [3]) is > 0.5 µM.
On to `C=CC(=O)N[C@@H]1CCCN(Cc2cccc(C(F)(F)F)c2)C1` [Compound I-47, N-[(3R)-1-[[3-(trifluoromethyl)phenyl]methyl]-3-piperidyl]prop-2-enamide], for which the concentration giving a half-maximal response (EC50) in test [1] (setting [3]) and in test [2] (setting [4]) was > 0.5 µM in each case.
For `C=CC(=O)NC1(C)CCN(Cc2ccc(C(F)(F)F)cc2)CC1` [Compound I-73, N-[4-methyl-1-[[4-(trifluoromethyl)phenyl]methyl]-4-piperidyl]prop-2-enamide], the concentration for a half-maximal effect (EC50) in test [1] (setting [5]) and in test [2] (setting [6]) was > 0.5 µM throughout.
Regarding `C=CC(=O)NC1CCN(Cc2ccc(C#N)cc2)CC1` [Compound I-393], the EC50 in test [1] (setting [3]) and in test [2] (setting [4]) was > 0.5 µM throughout.
`C=CC(=O)N[C@@H]1Cc2ccccc2N(Cc2cccc(C(F)(F)F)c2)C1` [Compound I-71, N-[(3R)-1-[[3-(Trifluoromethyl)phenyl]methyl]-3,4-dihydro-2H-quinolin-3-yl]prop-2-enamide]: the EC50 in test [1] (setting [3]) and in test [2] (setting [4]) was < 0.1 µM throughout.
Turning to `C=CC(=O)N[C@@H]1CCN(Cc2ccc(C(F)(F)F)cc2)C1` [Compound I-55, N-[(3R)-1-[[4-(trifluoromethyl)phenyl]methyl]pyrrolidin-3-yl]prop-2-enamide], the concentration for a half-maximal effect (EC50) in test [1] (setting [3]) and in test [2] (setting [4]) was 0.1 to 0.5 µM each time.
Consider `FC(F)(F)c1ccc(CN2CCC3(CC2)CC(Br)=NO3)cc1` [Compound I-149, 3-bromo-8-[[4-(trifluoromethyl)phenyl]methyl]-1-oxa-2,8-diazaspiro[4.5]dec-2-ene], for which the values for the EC50 in test [1] (setting [3]) and in test [2] (setting [4]) were > 0.5 µM and 0.1 to 0.5 µM, respectively.
`C=CC(=O)N1CCC(NCc2cccc(C(F)(F)F)c2)CC1` [Compound I-61]: the EC50 in test [1] (setting [3]) and in test [2] (setting [4]) was > 0.5 µM in each case.
As to `C=CC(=O)Nc1cc(Oc2cccc(C(F)(F)F)c2)c(C)cn1` [Compound I-45], the 50% effective concentration (EC50) in test [1] (setting [3]) and in test [2] (setting [4]) was < 0.1 µM in each case.
In the case of `C=CC(=O)Nc1ccc2c(c1)N(c1cccc(C(F)(F)F)c1)CCC2` [Compound I-37, N-[1-[3-(trifluoromethyl)phenyl]-3,4-dihydro-2H-quinolin-7-yl]prop-2-enamide], the EC50 in test [1] (setting [3]) is > 0.5 µM; in test [2] (setting [4]), 0.1 to 0.5 µM.
The like results for `C=CC(=O)NC1CCN(Cc2ccc(C(C)(C)C)cc2)CC1` [Compound I-395] were, in that order, > 0.5 µM and > 0.5 µM.
With `C=CC(=O)N1CC[C@@H](NCc2cccc(C(F)(F)F)c2)C1` [Compound I-386, 1-[(3R)-3-[[3-(Trifluoromethyl)phenyl]methylamino]pyrrolidin-1-yl]prop-2-en-1-one], the EC50 in test [1] (setting [3]) and in test [2] (setting [4]) was 0.1 to 0.5 µM each time.
Turning to `C=CC(=O)N1CC[C@H](NCc2ccc(C(F)(F)F)cc2)C1` [Compound I-64, 1-[(3S)-3-[[4-(Trifluoromethyl)phenyl]methylamino]pyrrolidin-1-yl]prop-2-en-1-one], the half-maximal effective concentration (EC50) in test [1] (setting [3]) and in test [2] (setting [4]) was < 0.1 µM each time.
Take `C=CC(=O)N1C[C@@H]2[C@H](C1)[C@H]2NCc1cccc(C(F)(F)F)c1` [Compound I-72, 1-[(1S,5R)-6-[[3-(trifluoromethyl)phenyl]methylamino]-3-azabicyclo[3.1.0]hexan-3-yl]prop-2-en-1-one]: the 50% effective concentration (EC50) in test [1] (setting [3]) was 0.1 to 0.5 µM; in test [2] (setting [4]), < 0.1 µM.
For `C=CC(=O)N[C@H]1CCN(Cc2ccc(C(F)(F)F)cc2)c2ccccc21` [Compound I-68, N-[(4S)-1-[[4-(Trifluoromethyl)phenyl]methyl]-3,4-dihydro-2H-quinolin-4-yl]prop-2-enamide] the same measures were 0.1 to 0.5 µM and > 0.5 µM.
Consider `C=CC(=O)NC1CCC(Nc2ccc(C(F)(F)F)cc2)CC1` (stereo not drawn) [Compound I-58, N-[4-[4-(trifluoromethyl)anilino]cyclohexyl]prop-2-enamide], for which the concentration giving a half-maximal response (EC50) in test [1] (setting [5]) and in test [2] (setting [6]) was > 0.5 µM each time.
On to `C=CC(=O)Nc1cc(Oc2cccc(C(F)(F)F)c2)c2cccnc2c1` [Compound I-44, N-[5-[3-(Trifluoromethyl)phenoxy]-7-quinolyl]prop-2-enamide], for which the EC50 in test [1] (setting [3]) and in test [2] (setting [4]) was < 0.1 µM each time.
For `C=CC(=O)Nc1cc(Oc2cccc(C(F)(F)F)c2)cc2ncccc12` [Compound I-42], the EC50 was < 0.1 µM in test [1] (setting [3]) and 0.1 to 0.5 µM in test [2] (setting [4]).
The like results for `C=CC(=O)NC1CCC(Oc2ccc(C(F)(F)F)cc2)CC1` (stereo not drawn) [Compound I-67, N-[4-[4-(Trifluoromethyl)phenoxy]cyclohexyl]prop-2-enamide] were, in that order, 0.1 to 0.5 µM and 0.1 to 0.5 µM.
For `C=CC(=O)NC1CCN([C@@H](C)c2ccc(C(F)(F)F)cc2)CC1` [Compound I-63, N-[1-[(1S)-1-[4-(Trifluoromethyl)phenyl]ethyl]-4-piperidyl]prop-2-enamide] the same measures were 0.1 to 0.5 µM and > 0.5 µM.
For `C=CC(=O)NC1CCN(c2cccc3ccccc23)CC1` [Compound I-66, N-[1-(1-Naphthyl)-4-piperidyl]prop-2-enamide] the same measures were > 0.5 µM and > 0.5 µM.
With `C=CC(=O)NC1CCN(Cc2ccc(-c3ccccc3)cc2)CC1` [Compound I-389], the EC50 in test [1] (setting [3]) and in test [2] (setting [4]) was > 0.5 µM throughout.
Regarding `C=CC(=O)NC1CCN(Cc2ccc(C3CC3)cc2)CC1` [Compound I-397], the EC50 in test [1] (setting [3]) is > 0.5 µM; in test [2] (setting [4]), 0.1 to 0.5 µM.

In general, EC50 refers to the concentration at which the effect is half-maximal.
